{
  "source": "patent US8809010B2",
  "about": "“Method for prophylactic treatment of alzheimer's disease using inhibitors of glutaminyl cyclase and glutamate cyclases” (Probiodrug AG, priority 2003, dated 2014)",
  "key": {"[1]": {"system": "pGlu-Aβ(3-42) formation in HEK293 and β-TC3 cells", "assay": "pGlu-Aβ formation in cell culture (APP or mTRH-Aβ constructs), ELISA of medium", "format": "cell-based", "method": "Aβ(x-42) shall here relate to all N-terminal Aβ or truncated Aβ forms.\nIn the accompanying approach, plasmids encoding variants of human APP were transfected into HEK293 cells (FIG. 24-2). The processing by β- and γ-secretase yields high amounts of Aβ(3-40/42), which can be detected in the culture medium.\nFor analysis of Aβ in case of the cell culture studies, conditioned medium was diluted using EIA buffer (IBL, Hamburg) as before and diluted samples were subjected to ELISA analysis."}, "[2]": {"system": "pGlu-Aβ(3-40) formation in rat cortex", "assay": "Rat model, intracortical injection of Aβ peptides (traumatic brain injury), ELISA and immunohistochemistry", "format": "in vivo", "description": "Aβ(x-40), Aβ(x-42) and Aβ (N3pE-42)-specific sandwich ELISAs (all from IBL, Hamburg) were performed according to the manufacturer's manual. Briefly, samples were diluted according to the expected concentration in the brain parts and applied onto a plate precoated with an antibody specific for the respective C-terminus. The samples were incubated overnight. The next day, the plate was washed 8 times and incubated for 1 h with a horse radish peroxidase conjugated detection antibody afterwards. Following this incubation the plate was washed 10 times and then developed with chromogen (TMB) for 30 min. After applying the stop solution the absorption at 450 nm was measured using a microplate reader (TECAN Sunrise). For preparation of standard curves the respective synthetic peptides supplied with the ELISA kits were used.\nSamples for ELISA were prepared from 8 animals per group (total 32 animals). After removal of the brain, the tissue were flushed shortly with ice cold saline and placed shortly on filter paper. The cerebellum were prepared from each brain and stored separately. The brains were weighed and frozen in liquid nitrogen in 2 ml Cryo-tubes and stored at −80° C. until analysis.\nFor sequential separation of Aβ the following procedures were used: […]"}, "Plasma half-life": {"assay": "Plasma half-life", "format": "in vivo", "conditions": "rat"}, "[3]": {"system": "human MCP-1 concentration, HEK293 cells", "assay": "Expression of human MCP-1 in HEK293 cells, MCP-1 ELISA of supernatant", "format": "cell-based", "conditions": "10 μM inhibitor", "method": "For expression of N-terminal variants of human MCP-1, HEK293 cells were cultured in collagen I coated 6-well dishes and grown until 80% confluency, transfected using Lipofectamin2000 (Invitrogen) according to manufacturer's manual and incubated in the transfection solution for 5 hours. Afterwards, cells were allowed to recover in normal growth media over night. The next day, cells were incubated another 24 h in growth media. When application of QC specific inhibitor […] was intended, cells were incubated for 24 h in absence or presence of 10 μM […]. […] Furthermore, an aliquot of cell culture supernatant was stored at −80° C. for quantification of human MCP-1 concentration using human MCP-1-ELISA (Pierce)."}, "THP-1 monocytes": {"system": "THP-1 monocytes", "assay": "TransWell chemotaxis assay", "format": "cell-based, human", "conditions": "10 μM inhibitor, dilutions 1:3 and 1:10", "method": "The chemotaxis assay was performed using 24 well TransWell plates with a pore size of 5 μm (Corning). Media, containing human MCP-1 variants expressed in HEK293, were used as chemoattractant. To this avail, 600 μl of the culture media of N-terminal human MCP-1 variants was applied directly or in dilutions 1:3, 1:10 and 1:30 in RPMI1640 to the lower chamber of the TransWell plate. Furthermore, undiluted media of HEK293 cells transfected with vector control were applied as negative control to the lower chamber. THP-1 cells were harvested and resuspended in RPMI1640 in a concentration of 1*10^6 cells/100 μl and applied in 100 μl aliquots to the upper chamber. Cells were allowed to migrate towards the chemoattractant for 2 h at 37° C. Subsequently, cells from the upper chamber were discarded and the lower chamber was mixed with 70 mM EDTA in PBS and incubated for 15 min at 37° C. to release cells attached to the membrane. Afterwards, cells migrated to the lower chamber were counted using a cell counter system (Schärfe System). The chemotactic index was calculated by dividing cells migrated to the stimulus from cells migrated to the negative control."}, "[4]": {"system": "cuffed femoral artery: vascular remodeling, monocyte adhesion, MCP-1 expression", "assay": "Cuff-induced accelerated atherosclerosis in ApoE3*Leiden mice", "format": "in vivo", "parameters": "reduction of percentage of lumen stenosis / reduction of the area of neointima formation / reduction of total adhering cells / reduction of adhering monocytes / reduction of MCP-1 expression, absolute area, media / reduction of MCP-1 expression, absolute area, intima: concentration or dose not given beside the values", "method": "After 3 weeks the mice underwent surgical non-constricting cuff placement (day 0) and were divided into 2 groups, matched for plasma cholesterol levels.\nAt the time of surgery, mice were anaesthetized with an intraperitoneal injection of 5 mg/kg Dormicum, 0.5 mg/kg Domitor and 0.05 mg/kg Fentanyl. This cocktail gives complete narcosis for at least one hour and can be quickly antagonized with Antisedan 2.5 mg/kg and Anexate 0.5 mg/kg.\nA longitudinal 1 cm incision is made in the internal side of the leg and the femoral artery is dissected for 3 mm length from the femoral nerve and femoral vein. The femoral artery is looped with a ligature and a non-constrictive fine bore polyethylene tubing (0.4 mm inner diameter, 0.8 mm outer diameter, length 2 mm) is longitudinally opened and sleeved loosely around the femoral artery. The cuff is closed up with two ligature knots. The skin is closed with a continued suture.\nFor histological analysis, animals were sacrificed either 2 days or 14 days after cuff placement. […] After perfusion, a longitudinal 2 cm incision was made in the internal side of the leg and the cuffed femoral artery was harvested as a whole and fixed overnight in 4% formaldehyde and processed to paraffin.\nAdhesion of leukocytes in general and monocytes/macrophages in particular to the activated endothelium of the cuffed vessel wall was analyzed by microscopic analysis of cross sections harvested 2 days after cuff placement. The number of adhering and/or infiltrating leukocytes in general, identified as adhering cells at the luminal side of the vessel segment, and monocytes/macrophages in particular was counted and illustrated as cells per cross-section or as defined areas per cross section. Monocytes were identified by specific immunohistochemical staining by AIA31240 antibody, recognizing monocytes and macrophages.\nVessel wall remodeling accelerated atherosclerosis and neoinitima formation were analyzed morphometrically in all mice sacrificed after 14 days. A full comparison between the two groups was performed for all relevant vessel wall parameters (neointima formation, vascular circumference (i.e. outward remodelling), media thickness, lumen stenosis). Accelerated atherosclerosis was analyzed by immunohistochemical staining for macrophages and foam cells in the lesion area by AIA31240 antibody."}, "HEK293 cells": {"system": "HEK293 cells", "assay": "Aβ in conditioned medium after transient APP expression, BACE I inhibition, ELISA", "format": "cell-based, human", "method": "(§1) The constructs are depicted in FIG. 33. The APP-encoding plasmids differed with respect to the sequence surrounding the β-secretase cleavage site, i.e. either carried the swedish mutation (KM595/596NL) or the wild-type sequence (K595M596) at the β-secretase-cleavage site. Furthermore, the constructs encoded either the London (V642I) or wild-type sequence (V642) near the γ-secretase cleavage site. The swedish mutation leads to an elevated generation of Aβ due to enhanced cleavage by the β-secretase BACE I. The London mutation mediates enhanced formation of Aβ42 peptides compared to the wild-type sequence without affecting the total Aβ generation.\n(§2) In order to substantiate the role of these newly discovered enzyme activity generating the molecular precursor of pGlu-Aβ peptides, inhibitors of the known β-secretase BACE I were employed in experiments based on transient expression of the plasmid constructs outlined in FIG. 33. Similar to the observations with the APP(N3Q) constructs, N-terminally truncated peptides were generated mainly after APP-WT and APP-London expression.\n(§3) Aβ(x-40), Aβ(x-42) and Aβ (N3pE-42)-specific sandwich ELISAs (all from IBL, Hamburg) were performed according to the manufacturer's manual. […] After applying the stop solution the absorption at 450 nm was measured using a microplate reader (TECAN Sunrise). […]"}, "LNZ-308 cells": {"system": "LNZ-308 cells", "assay": "Aβ in conditioned medium after transient APP expression, BACE I inhibition, ELISA", "format": "cell-based", "method": "as §1, §2, §3"}},
  "data": [
    {"smiles": "COc1ccc(NC(=S)NCCCn2ccnc2)cc1OC.Cl", "note": "[1-(3-(1H-imidazol-1-yl)propyl)-3-(3,4-dimethoxyphenyl)thiourea hydrochloride]", "values": [
      {"measurement": "pGlu-Aβ concentration in medium", "setting": "[1]; HEK293 and β-TC3 settings", "result": "significantly reduced"},
      {"measurement": "total Aβ concentration in medium", "setting": "[1]; indicator of cell viability", "result": "not reduced"},
      {"measurement": "pGlu-Aβ immunostaining", "setting": "[2]; injected prior to Aβ(3-40)", "result": "significant reduction in pGlu-Aβ immunostaining"},
      {"measurement": "pGlu-Aβ after injection of Aβ(1-40)", "setting": "[2]; rat, in vivo", "result": "did not result in a clear reduction of pGlu-Aβ"},
      {"measurement": "half-life", "setting": "Plasma half-life", "result": "< 1", "unit": "h"},
      {"measurement": "level of MCP-1 (WT) in supernatant", "setting": "[3]", "result": "not significantly changed"},
      {"measurement": "chemotaxis of THP-1 cells towards MCP-1 (WT) supernatant", "setting": "THP-1 monocytes", "result": "significantly lower chemotaxis"},
      {"measurement": "reduction of MCP-1 expression, absolute area, intima", "setting": "[4]; 2 days", "result": 40, "unit": "%"},
      {"measurement": "reduction of MCP-1 expression, absolute area, media", "setting": "[4]; 2 days", "result": 41, "unit": "%"},
      {"measurement": "reduction of adhering monocytes", "setting": "[4]; 2 days", "result": 67, "unit": "%"},
      {"measurement": "reduction of total adhering cells", "setting": "[4]; 2 days", "result": 45, "unit": "%"},
      {"measurement": "MCP-1 expression in media or neointima", "setting": "[4]; 14 days", "result": "no reduction of MCP-1 expression"},
      {"measurement": "area of the media", "setting": "[4]; 14 days", "result": "reduced"},
      {"measurement": "reduction of percentage of lumen stenosis", "setting": "[4]; 14 days", "result": 40, "unit": "%"},
      {"measurement": "reduction of the area of neointima formation", "setting": "[4]; 14 days", "result": 45, "unit": "%"},
      {"measurement": "remaining lumen", "setting": "[4]; 14 days", "result": "no statistically significant effect"}
    ]},
    {"smiles": "C[C@@H](NC(=O)c1cc(C(=O)N[C@@H](Cc2ccccc2)[C@H](O)CNC2CC2)cc(N(C)S(C)(=O)=O)c1)c1ccccc1", "note": "[BACE IV]", "values": [
      {"measurement": "Aβ(1-40) and Aβ(1-42)", "setting": "HEK293 cells", "result": "reduced the N-terminally intact Aβ-peptides"},
      {"measurement": "total Aβ40-concentration", "setting": "HEK293 cells; HEK293 cells", "result": "did not influence the total Aβ40-concentration significantly"},
      {"measurement": "total Aβ lowering", "setting": "LNZ-308 cells", "result": "only marginal efficacy"}
    ]}
  ]
}
